Test results taken from ChEMBL document CHEMBL1201862, “PubChem BioAssay data set” (2004).
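Dose response: 5 concentrations. Exposure: 48 h. Format: 96-well plates. Endpoint: linear interpolation; highest concentration if not reached. Abbreviation: GI50, concentration required for 50% inhibition of growth.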 The source made the active and inactive calls. No stated cut-off is given here; in the data, active = GI50 up to about 1.1 µM and inactive = higher.

What was measured:
Test in all cases: NCI tumour cell line growth inhibition, 48 h
[1] = tested on: 786-0
[2] = tested on: RPMI-8226
[3] = tested on: HOP-62
[4] = tested on: ACHN
[5] = tested on: NCI-H23
[6] = tested on: CCRF-CEM
[7] = tested on: SNB-75
[8] = tested on: MOLT-4
[9] = tested on: HL-60
[10] = tested on: EKVX
[11] = tested on: SNB-19
[12] = tested on: HT-29
[13] = tested on: HCT-116
[14] = tested on: NCI-H522
[15] = tested on: SF-268
[16] = tested on: A549
[17] = tested on: NCI/ADR-RES
[18] = tested on: MDA-MB-435
[19] = tested on: MCF7
[20] = tested on: MDA-MB-231

SMILES	GI50 [1]	GI50 [2]	GI50 [3]	GI50 [4]	GI50 [5]	GI50 [6]	GI50 [7]	GI50 [8]	GI50 [9]	GI50 [10]	GI50 [11]	GI50 [12]	GI50 [13]	GI50 [14]	GI50 [15]	GI50 [16]	GI50 [17]	GI50 [18]	GI50 [19]	GI50 [20]
Oc1cc(-c2ccccc2)nc2cc(Cl)ccc12	0.507 µM (active)	0.422 µM (active)	1.31 µM (inactive)	0.914 µM (active)	1.1 µM (active)	0.432 µM (active)	0.352 µM (active)	0.675 µM (active)	0.24 µM (active)	> 100 µM (inactive)	0.527 µM (active)	2 µM (inactive)	0.339 µM (active)	0.112 µM (active)	1.21 µM (inactive)	0.515 µM (active)				
O=C1CCC2(c3ccc(F)cc3)Nc3cc(Cl)ccc3N12 (centres undefined)	> 100 µM (inactive)	76.7 µM (inactive)	> 100 µM (inactive)	54.6 µM (inactive)	38.3 µM (inactive)	> 100 µM (inactive)	> 100 µM (inactive)	37.2 µM (inactive)	63.4 µM (inactive)	> 100 µM (inactive)	> 100 µM (inactive)	> 100 µM (inactive)	67.8 µM (inactive)	48.6 µM (inactive)	> 100 µM (inactive)	59.4 µM (inactive)				
COc1cnc2oc3ccc(O)cc3c2c1-c1ccccc1	21.9 µM (inactive)	> 100 µM (inactive)	24 µM (inactive)	> 100 µM (inactive)	44.7 µM (inactive)	59.3 µM (inactive)	> 100 µM (inactive)	> 100 µM (inactive)	> 100 µM (inactive)	> 100 µM (inactive)		85.1 µM (inactive)	15.2 µM (inactive)	> 100 µM (inactive)	4 µM (inactive)	> 100 µM (inactive)	30.3 µM (inactive)	> 100 µM (inactive)	39.7 µM (inactive)	
COC(=O)N/N=C(/CCN1CCCC1)CC(c1ccccc1)c1c(O)c2ccccc2oc1=O (centres undefined)	> 100 µM (inactive)	> 100 µM (inactive)	> 100 µM (inactive)	> 100 µM (inactive)	> 100 µM (inactive)	> 100 µM (inactive)	30.1 µM (inactive)	> 100 µM (inactive)	> 100 µM (inactive)	> 100 µM (inactive)	> 100 µM (inactive)	> 100 µM (inactive)	> 100 µM (inactive)	> 100 µM (inactive)	> 100 µM (inactive)	> 100 µM (inactive)				
N#CC(/C(=N/NC(N)=S)C(=O)Nc1cccc(Cl)c1)c1ccccc1 (centres undefined)	> 100 µM (inactive)	> 100 µM (inactive)	> 100 µM (inactive)	> 100 µM (inactive)	> 100 µM (inactive)	> 100 µM (inactive)	38.8 µM (inactive)	> 100 µM (inactive)	> 100 µM (inactive)	> 100 µM (inactive)	> 100 µM (inactive)	> 100 µM (inactive)	> 100 µM (inactive)	> 100 µM (inactive)	> 100 µM (inactive)	> 100 µM (inactive)				
O=C(c1cc(Cl)ccc1Cl)N1CCN(C(=O)c2cc(Cl)ccc2Cl)CC1	91.2 µM (inactive)	> 100 µM (inactive)	38.8 µM (inactive)	94.4 µM (inactive)	> 100 µM (inactive)	> 100 µM (inactive)	33.1 µM (inactive)	> 100 µM (inactive)	> 100 µM (inactive)	> 100 µM (inactive)	> 100 µM (inactive)	> 100 µM (inactive)	> 100 µM (inactive)	34.4 µM (inactive)	> 100 µM (inactive)	> 100 µM (inactive)			> 100 µM (inactive)	> 100 µM (inactive)
Brc1ccc(C2SCc3nc4ccccc4n32)cc1 (centres undefined)	12.2 µM (inactive)	5.08 µM (inactive)	7.57 µM (inactive)	8.2 µM (inactive)	2.75 µM (inactive)	15.7 µM (inactive)	< 0.01 µM (active)	13.4 µM (inactive)	3.19 µM (inactive)	11.9 µM (inactive)	4.48 µM (inactive)	7.78 µM (inactive)	6.3 µM (inactive)	2.3 µM (inactive)	13.6 µM (inactive)	19 µM (inactive)				
COc1ccc(C2(CN(C)C)COc3cc(OC)c(OC)cc3C2=O)cc1OC (centres undefined)	> 100 µM (inactive)	23.5 µM (inactive)	> 100 µM (inactive)	89.5 µM (inactive)	32.7 µM (inactive)	19.6 µM (inactive)	47 µM (inactive)	44.3 µM (inactive)	16.6 µM (inactive)	> 100 µM (inactive)	> 100 µM (inactive)	46.7 µM (inactive)	16.3 µM (inactive)	59.6 µM (inactive)	> 100 µM (inactive)	69.8 µM (inactive)				
CCN(CC)C(=O)Cn1c2c(c3ccccc31)CCCC2	> 100 µM (inactive)	56.8 µM (inactive)	> 100 µM (inactive)	65.2 µM (inactive)	45.4 µM (inactive)	89.3 µM (inactive)			45.2 µM (inactive)	> 100 µM (inactive)	> 100 µM (inactive)	> 100 µM (inactive)	40.9 µM (inactive)		> 100 µM (inactive)	61.8 µM (inactive)	66.4 µM (inactive)	91.4 µM (inactive)	> 100 µM (inactive)	
CCCCC1(C(NC(=O)c2ccccc2Cl)c2ccncc2)C(=O)N(c2ccccc2)N(c2ccccc2)C1=O (centres undefined)	83.4 µM (inactive)	21.2 µM (inactive)	> 100 µM (inactive)	36.6 µM (inactive)	44.7 µM (inactive)	27.9 µM (inactive)	12.4 µM (inactive)	11.9 µM (inactive)	17.6 µM (inactive)	58.3 µM (inactive)	77.6 µM (inactive)	41.6 µM (inactive)	23.9 µM (inactive)	31.6 µM (inactive)	> 100 µM (inactive)	28.4 µM (inactive)				
CCc1cccc(C)c1NC(=O)CCc1nnc(SC)o1	> 100 µM (inactive)	> 100 µM (inactive)	> 100 µM (inactive)	> 100 µM (inactive)	> 100 µM (inactive)	> 100 µM (inactive)	> 79.4 µM (inactive)	> 100 µM (inactive)	> 100 µM (inactive)	> 100 µM (inactive)	> 100 µM (inactive)	> 100 µM (inactive)	> 100 µM (inactive)	> 100 µM (inactive)	> 100 µM (inactive)	> 100 µM (inactive)				
Nc1nc(Cl)cc(OCC2(CO)CCCC2)n1	> 100 µM (inactive)	> 100 µM (inactive)	> 100 µM (inactive)	> 100 µM (inactive)	> 100 µM (inactive)	> 100 µM (inactive)	> 100 µM (inactive)	> 100 µM (inactive)	> 100 µM (inactive)	91.4 µM (inactive)	> 100 µM (inactive)	> 100 µM (inactive)	> 100 µM (inactive)	> 100 µM (inactive)	> 100 µM (inactive)	> 100 µM (inactive)	> 100 µM (inactive)	> 100 µM (inactive)	> 100 µM (inactive)	
